The record followed here is ChEMBL document CHEMBL1145737 (Bioorg Med Chem Lett, 2003).

pIC50: −log10 of the molar value. Values after ≈ are worked out from the molar mass of the structure shown.

For one experiment, the system named is MDCK. In words: Inhibitory concentration against Influenza A virus (A/Yamagata/32/89) MDCK cells determined by plaque reduction assay. The following applies: Canis lupus familiaris. It is filed as functional, cell-based.
The target of experiment [1] is Neuraminidase (Influenza A virus (A/Puerto Rico/8/1934(H1N1)), UniProt P03468). In words: Inhibitory concentration against influenza A virus sialidase A/PR/8/34.
Neuraminidase (Influenza A virus (A/Puerto Rico/8/1934(H1N1)), UniProt P03468), sequence (P03468 whole entry): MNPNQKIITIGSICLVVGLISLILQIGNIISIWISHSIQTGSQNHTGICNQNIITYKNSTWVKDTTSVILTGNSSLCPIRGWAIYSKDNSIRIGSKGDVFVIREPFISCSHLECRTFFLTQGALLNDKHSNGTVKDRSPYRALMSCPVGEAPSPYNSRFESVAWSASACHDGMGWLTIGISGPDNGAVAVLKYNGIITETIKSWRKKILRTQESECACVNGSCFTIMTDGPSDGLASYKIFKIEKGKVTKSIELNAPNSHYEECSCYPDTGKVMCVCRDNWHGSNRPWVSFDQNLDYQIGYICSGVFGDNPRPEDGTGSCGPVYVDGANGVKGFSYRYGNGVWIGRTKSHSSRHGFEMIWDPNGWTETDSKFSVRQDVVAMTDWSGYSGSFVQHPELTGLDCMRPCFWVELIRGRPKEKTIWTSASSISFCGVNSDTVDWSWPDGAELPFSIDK
The next experiment has as its system Mus musculus. Description: Median survival time was determined after oral administration (10 umol/kg) once daily for 5 days in mouse infected with influenza virus. Type of experiment: functional.

The molecule `CC(=O)N[C@H]1[C@H]([C@@H]2OCC(F)(F)[C@@H](O)[C@H]2O)OC(C(=O)O)=C[C@@H]1NC(=N)N` returned an IC50 with MDCK of 1.4 ng/mL (≈ 3.55 nM). In experiment [1], this molecule had a pIC50 of 7.57.

For `CC(=O)N[C@H]1[C@H]([C@@H]2OCC[C@@H](O)[C@H]2O)OC(C(=O)O)=C[C@@H]1NC(=N)N`, the 50% inhibitory concentration (IC50) in the experiment with MDCK stood at 0.6 ng/mL (≈ 1.67 nM). In the experiment with Mus musculus, this molecule showed a Survival time of 10 days. Moreover, in experiment [1], the pIC50 is 7.54.

The molecule `CC(=O)N[C@H]1[C@H]([C@H](O)[C@H](O)CO)OC(C(=O)O)=C[C@@H]1NC(=N)N` [ZANAMIVIR] showed an IC50 in the experiment with MDCK of 6.6 ng/mL (≈ 19.9 nM).

`CC(=O)N[C@H]1[C@H]([C@@H]2C[C@@H](O)[C@@H](O)CO2)OC(C(=O)O)=C[C@@H]1NC(=N)N` yielded an IC50 in the experiment on MDCK above 100 ng/mL. The same molecule had a pIC50 in experiment [1] of 5.00.

Consider `CC(=O)N[C@H]1[C@H]([C@@H]2C[C@H](O)[C@H](O)CO2)OC(C(=O)O)=C[C@@H]1NC(=N)N`, for which the IC50 in the experiment on MDCK is above 100 ng/mL. In experiment [1], the pIC50 is 5.99.

In the case of `CC(=O)N[C@H]1[C@H]([C@H]2C[C@H](O)[C@H](O)CO2)OC(C(=O)O)=C[C@@H]1NC(=N)N`, the IC50 in the experiment with MDCK was above 100 ng/mL. In experiment [1], the negative logarithm of the IC50 (pIC50) is 8.17.

In the case of `CC(=O)N[C@H]1[C@H]([C@@H]2OC[C@@H](O)[C@H]2O)OC(C(=O)O)=C[C@@H]1NC(=N)N`, half-maximal inhibition with MDCK (IC50) required 1.4 ng/mL (≈ 4.07 nM). This molecule also had a pIC50 in experiment [1] of 7.75.

In turn, `CC(=O)N[C@H]1[C@H]([C@H]2C[C@@H](O)[C@@H](O)CO2)OC(C(=O)O)=C[C@@H]1NC(=N)N` returned an IC50 with MDCK above 100 ng/mL. The pIC50 in experiment [1] is 5.56.

`CC(=O)N[C@H]1[C@H]([C@H]2CCCCO2)OC(C(=O)O)=C[C@@H]1NC(=N)N` had an IC50 in the experiment with MDCK above 100 ng/mL. This molecule gave a negative logarithm of the IC50 (pIC50) in experiment [1] of 6.13.

For the molecule `CC(=O)N[C@H]1[C@H]([C@@H]2OCCC[C@@H](O)[C@H]2O)OC(C(=O)O)=C[C@@H]1NC(=N)N`, the IC50 in the experiment with MDCK turned out to be 2.2 ng/mL (≈ 5.91 nM). Further, the pIC50 in experiment [1] was 7.48.
